From US5814627A, “3, 5-disubstituted and 3, 4, 5-trisubstituted 2-isoxazolines and isoxazoles, process for their preparation and their use as pharmaceuticals” (Hoechst Aktienegesellschaft, priority 1994, dated 1998) come the findings set out here.

For assay [1], the system named is leukotriene B4 synthesis in white blood cells. Description: Test 3: LTB4 formation by white blood cells. Type of assay: cell-based. The following applies: Homo sapiens, read-out: Test 3 residual activity (LTB4 formation), percent of control. On the procedure: TEST 3. LTB4 formation by white blood cells
Isolation of white blood cells:
40 ml of human blood were mixed with 8 ml of 6% dextran solution (dextran, mw: 480,000 in PM16). After one hour at room temperature, the supernatant,which was composed of white blood cells, was removed, diluted with an equal volume of PM16, and centrifuged for 15 minutes at 300×g (1600 rpm). The sediment was next resuspended in approximately 5-6 ml of PM16 and, once the cell count had been determined in a Coulter Counter, adjusted to 10^7 cells/ml.
The test mixture comprised 0.24 ml of cell suspension, 0.03 ml of 20 mM CaCl2 /5 mM MgCl2 and 5 μl of test substance. Following 15 minutes of preincubation at 37° C., the reaction was started with 0.03 ml of A23187/glutathione (100 μg of A23187/ml; 15.4 μg of glutathione/ml). The incubation was terminated after 5 minutes at 37° C. by immediate cooling of the samples down to 0° C. After centrifuging for 2 minutes in an Eppendorff Centrifuge (0° C.), the supernatant was removed and examined chromatographically.
High pressure liquid chromatography (HPLC): the HPLC equipment comprises a Kratos pump (Spectro-flow 400), a cooled automatic BT 7041 sample injector (Biotronik) having a 75 μl sample loop, a Nucleosil C18 column (100*3 mm, 5 μm particles of Chrompack), a UV detector (Kratos) Spectroflow 757 (wavelength: 280 nm, measurement range: 0.1 AUFS, time constant: 0.5 s) and a Spectra Physics integrator (SP 4270). The eluent (725 ml of methanol, 275 ml of water and 0.1 ml of acetic acid) was supplied at a flow rate of 0.7 ml/minute and at a pressure of about 100 bar.
When doing this, the measurement range which has been set can be examined and altered if necessary. It is also vital to measure the test substances at the particular test concentration (e.g.: 10^-5 M) in PM16 before the cell incubation, since the test substances might conceal the LTB4 peak. If this is the case, a lower concentration must be selected.
(§1) The values in the table show the concentration of the test substance which was employed in μM and, besides this, the residual activity measured in percent based on the control, which was set to be 100%. The interleukin is additionally indicated in test 4.

The subject of assay [2] is TNFα release from mononuclear cells. Description: Test 4: cytokine release from LPS-stimulated mononuclear cells, TNFα. Type of assay: cell-based. The following applies: Homo sapiens, read-out: Test 4 residual activity (TNFα release), percent of control. As for the experimental part: (§2) Test 4. Stimulation of the cytokine release
(§3) Isolation of mononuclear cells from human blood
(§4) 10 ml of human blood, stabilized with 1 ml of 3.8% sodium citrate solution, were diluted with 10 ml of PM16 (Serva, Heidelberg) and underlaid with 15 ml of Lymphoprep (Dr. Molter GmbH, Heidelberg). The samples were centrifuged, at room temperature for 40 minutes, at 400×g (1600 rpm, Minifuge 2, Heraeus, Osterode). The mononuclear cells are visible as a white ring at the Lymphoprep/plasma interface. This ring was carefully removed with a syringe, diluted with an equal volume of PM16, and centrifuged for 10 minutes at 400×g. The sediment was washed with approximately 10 ml of RPMI1640 (+300 mg/l L-glutamine, Gibco, Eggenstein) (Wallis, 1986). After the cells had been resuspended in approximately 1 ml of RPMI1640 (+300 mg/l L-glutamine+25 mM HEPES+100 μg/ml streptomycin+100 μg/ml penicillin), the cell density was determined using a Coulter Counter JT (Coulter Diagnostics) and adjusted to 5*10^6 /ml. Typically, the cells are composed of 90% lymphocytes and 10% monocytes.
(§5) 230 μl of mononuclear cells were incubated, at 37° C.; 5% CO2 for 20-22 hours (5 hours in the case of IL-6), with 10 μl of test substance (10 μM in DMSO/water, 1/10) and 10 μl of lipopolysaccharide (LPS; 500 μg dissolved in 1 ml of DMSO and diluted 1/10 with water prior to beginning the test; from Salmonella abortus equi, Sigma, Deisenhofen). The samples were cooled down to 0° C. in an ice bath and centrifuged in a Sigma centrifuge (2 minutes; 2000 rpm). Aliquots of the supernatant are measured with an ELISA (Biermann, Bad Nauheim). The abbreviation IL stands for interleukin and TNF for tumor necrosis factor alpha.
as §1

Assay [3] relates to cyclooxygenase-dependent thrombocyte aggregation. Kind of assay: Test 5: Cyclooxygenase-dependent thrombocyte aggregation. Type of assay: cell-based, human. The following applies: Homo sapiens, arachidonic acid as inducer, read-out: Test 5 residual activity (cyclooxygenase-dependent thrombocyte aggregation), percent of control. The method, boiled down: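 Citrated human platelet-rich plasma was preincubated 10 min at 37 °C with test substance diluted 1:30 in 50 mM Tris-HCl pH 8.0, 90 mM NaCl. Aggregation was triggered with arachidonic acid (5 mg/ml, 20 μl) under 800 rpm stirring in an aggregometer. Values are tested concentration (μM) and residual activity as % of control.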

Assay [4] relates to polymorphonuclear leucocytes (PMNL). Description: Test 1: Release of proteolytic activity from human PMNL. It counts as cell-based. The following applies: Homo sapiens, PMNL, read-out: Test 1 residual activity (release of proteolytic activity), percent of control. The method, boiled down:
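Human peripheral-blood PMNL (5·10^6 cells/ml in PBS with 7.5 mM glucose) preincubated 20 min at 37° C. with compound, then primed with cytochalasin B (5 μg/ml) and TNF (30 ng/ml), and stimulated with fMLP (10 nmol/l) for 60 min. Released protease in supernatant read with methoxysuccinyl-nitroanilide substrate at 405 nm over 0-60 min, pH 7.5.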

Assay [5] deals with IL-1α release from mononuclear cells. Kind of assay: Test 4: cytokine release from LPS-stimulated mononuclear cells, IL-1α. It counts as cell-based. The following applies: Homo sapiens, read-out: Test 4 residual activity (IL-1α release), percent of control. On the procedure:
as §2, §3, §4
230 μl of mononuclear cells were incubated, at 37° C.; 5% CO2 for 20-22 hours (5 hours in the case of IL-6), with 10 μl of test substance ([…]) and 10 μl of lipopolysaccharide (LPS; 500 μg dissolved in 1 ml of DMSO and diluted 1/10 with water prior to beginning the test; from Salmonella abortus equi, Sigma, Deisenhofen). The samples were cooled down to 0° C. in an ice bath and centrifuged in a Sigma centrifuge (2 minutes; 2000 rpm). Aliquots of the supernatant are measured with an ELISA (Biermann, Bad Nauheim). The abbreviation IL stands for interleukin and TNF for tumor necrosis factor alpha.
as §1

The test system of assay [6] is PAF-induced asthma attack. Kind of assay: Test 7: antiasthmatic effect, PAF-induced asthma attack. The following applies: Cavia porcellus; i.d., 15 minutes before PAF; guinea pig. It counts as in vivo. On the procedure:
Test 7: Testing for antiasthmatic effect
Anesthetized guinea pigs, which were cannulated in the jugular vein to allow injection of the PAF, were used for testing for antiasthmatic effect. The test preparations were also administered intravenously (i.v.), 5 min before PAF administration, into the blood stream through the same venous cannula, or else administered intraduodenally (i.d.), 15 minutes before the PAF, through an opening in the duodenum which had been installed and cannulated surgically. The bronchial width was recorded in an overflow pneumonogram before and after administering the preparation. Evaluation: ED50 in mg/kg i.d. as compared with the PAF-induced asthma attack.

Assay [7] relates to tumor cell line 20-10-5S (hybridoma cell line). Description: Test 8: Inhibition of tumor cell proliferation. Type of assay: cell-based. The following applies: 48 h + 16 h tritiated thymidine incorporation; 20-10-5S cells.
Assay [8] deals with IL-1β release from mononuclear cells. Description: Test 4: cytokine release from LPS-stimulated mononuclear cells, IL-1β. It counts as cell-based. Particulars: Homo sapiens, read-out: Test 4 residual activity (IL-1β release), percent of control. On the procedure: as §2, §3, §4, §5, §1
The subject of a further assay is adjuvant/arthritis model. Description: Test 6: antiarthritic effect in the adjuvant/arthritis model. Type of assay: in vivo, rat (Wistar-Lewis). The following applies: Rattus norvegicus, po, 408 h, 50 mg/kg orally, daily for 17 days; rat; read-out: Test 6 Paw volume (% inhibition).
The test system of assay [9] is IL-1 release from mononuclear cells. Description: Test 4: cytokine release from LPS-stimulated mononuclear cells, IL-1. Type of assay: cell-based. The following applies: Homo sapiens. As for the experimental part: as §2, §3, §4, §5, §1
[10] abbreviates: IL-1, read-out: Test 4 residual activity (IL-1 release), percent of control.

Read-outs that look alike come from different tables or passages of the source.

As to `CC(C)(C)c1cc(C2=NOC(c3ccncc3)C2)cc(C(C)(C)C)c1O` (stereo not drawn) [Example 10], in assay [1], the activity at 1 µM worked out at 89%. Further, the values for the activity at 10 µM in assay [1] and in [2] were 20% and 78%, respectively. Also, in assay [3], the activity at 100 µM worked out at 98%.
Take `CC(C)(C)c1cc(-c2cc(/C=C/C(=O)O)on2)cc(C(C)(C)C)c1O` [Example 47, 3-(4-Hydroxy-3,5-di-tert-butylphenyl)isoxazol-5-ylacrylic acid]: the activity at 1 µM in assay [4] (1 μM) stood at 85%; in assay [5], 89%. Further, the activity at 10 µM is 38% in assay [4], 72% in [5] and 64% in assay [2]. The activity at 100 µM in assay [4] came out at 17%. Besides, the ED50 – broadly, the midpoint of the dose-response relation – in [6] lay in the range of 10 to 50 mg/kg. The IC50 (in general, the concentration that gives 50% inhibition) in assay [7] lay in the range of 5 to 10 µM.
Consider `CC(C)(C)c1cc(-c2cc(CCC(=O)Nc3nnn[nH]3)on2)cc(C(C)(C)C)c1O` [Example 46, 3-(3-(4-Hydroxy-3,5-di-tert-butylphenyl)isoxazol-5-yl)-N-(1H-tetrazol-5-yl)propionamide], for which the activity at 1 µM amounted to 77% in [5] and 85% in assay [8]. Moreover, the activity at 10 µM in assay [2] is 79%. In addition, the activity at 100 µM in assay [3] turned out to be 90%.
In the case of `CCOC(=O)C(C)(C)OCc1cc(-c2cc(C(C)(C)C)c(O)c(C(C)(C)C)c2)no1` [Example 35], the activity at 10 µM in [5] was determined as 84%. Further, the activity at 100 µM in assay [3] is 94%.
Turning to `CC(C)(OCc1cc(-c2cc(C(C)(C)C)c(O)c(C(C)(C)C)c2)no1)C(=O)Nc1nnn[nH]1` [Example 38, 2-(3-(4-Hydroxy-3,5-di-tert-butylphenyl)isoxazol-5-ylmethoxy)-N-(1H-tetrazol-5-yl)isobutyramide], the activity at 1 µM in assay [5] was 89%; in assay [8], 85%. In addition, the activity at 100 µM in assay [3] was found to be 90%.
On to `CC(C)(C)c1cc(-c2cc(CCO)on2)cc(C(C)(C)C)c1O` [Example 25], for which the activity at 1 µM in [1] was 85%. Besides, the activity at 10 µM was 29% in assay [1]; 62% in assay [5]; 93% in assay [8] (10 μM); 82% in assay [2]; 86% in assay [3]. Further, the inhibition in vivo at 50 mg/kg in the assay on adjuvant/arthritis model is 44%. The molecule also showed a 50% effective dose (ED50) in [6] of 3 to 10 mg/kg. Besides, the IC50 in assay [7] is less than 5 µM.
For `CC(C)(C)c1cc(-c2cc(CO)on2)cc(C(C)(C)C)c1O` [Example 24], the activity at 10 µM in [9] (setting [10]) is 86%; in assay [3], 94%. Also, the inhibition in vivo at 50 mg/kg with adjuvant/arthritis model stood at 43%. The IC50 in assay [7] was less than 5 µM.
Consider `CC(C)(C)c1cc(C2CC(CCC(=O)Nc3nnn[nH]3)=NO2)cc(C(C)(C)C)c1O` (stereo not drawn) [Example 64, 5-(4-Hydroxy-3,5-di-tert-butyl)phenyl-2-isoxazoline-3-propionic acid-N-(1H-tetrazol-5-yl)amide], for which the activity at 10 µM in [4] came out at 96%; in assay [9] (IL-1 (second entry), read-out: Test 4 residual activity (IL-1 release, second IL-1 entry of Ex. 64), percent of control), 82%; in [9] (setting [10]), 68%. Moreover, the activity at 100 µM in [4] amounted to 72%; in assay [3], 97%. Also, in assay [9] (IL-1, 1 μM, read-out: Test 4 residual activity (IL-1 release), percent of control), the activity at 1 µM is 85%.
As for `CC(O)C1CC(c2cc(C(C)(C)C)c(O)c(C(C)(C)C)c2)=NO1` (stereo not drawn) [Example 18], the activity at 10 µM in [5] was found to be 89%. In addition, the activity at 100 µM in [5] (100 μM) was 36%. Also, the IC50 in assay [7] is 5 to 10 µM.
Take `CC(C)(C)c1cc(C2CC(c3nccs3)=NO2)cc(C(C)(C)C)c1O` (stereo not drawn) [Example 61, 3-(2-Thiazolyl)-5-(4-hydroxy-3,5-di-tert-butylphenyl)-2-isoxazoline]: the values for the activity at 100 µM in [4] and in assay [3] were 80% and 94%, respectively. The results for the activity at 10 µM in [1] and in assay [2] were 3% and 68%, respectively. Also, in assay [5], the activity at 1 µM worked out at 94%.
Turning to `CC(C)(C)c1cc(-c2cc(CCCO)on2)cc(C(C)(C)C)c1O` [Example 26], the activity at 10 µM was determined as 88% in assay [2] and 94% in assay [3]. For the same molecule, in [7], the half-maximal inhibitory concentration (IC50) is less than 5 µM.
